# Data published in ChEMBL document CHEMBL4715817, “Python Cathelicidin CATHPb1 Protects against Multidrug-Resistant Staphylococcal Infections by Antimicrobial-Immunomodulatory Duality” (J Med Chem, 2018).
# Active and inactive are the calls of the source. The calls are words filed in the database; no cut-off is given here. Peptide text beside a SMILES is read from it.
# How the values were obtained:
# Candida albicans = experiment: Antimicrobial activity against Candida albicans IS 08022710 incubated for 16 to 18 hrs by fluorescence microplate reader analysis; assay type: functional; settings: time 16-18 hrs
# Macrophage = experiment: Immunomodulatory activity in mouse peritoneal macrophage assessed as inhibition of LPS-induced IL-1beta level measured after 24 hrs by ELISA; assay type: functional, tissue-based; settings: dose 5-20 µg/ml
# Escherichia coli = experiment: Antibiofilm activity against Escherichia coli assessed as biofilm eradication at BIC-5 by XTT and crystal violet staining assay relative to control; assay type: functional
# Neutrophil = experiment: Immunomodulatory activity in neutrophils (unknown origin) assessed as inhibition of LPS-induced MCP-1 level at 5 to 20 ug/ml by ELISA; assay type: functional, cell-based; settings: dose 5-20 µg/ml
# Mus musculus = experiment: Immunomodulatory activity in Kunming mouse infected with vancomycin-resistant Staphylococcus aureus assessed as increased in IL-10 level in peritoneal lavage at 10 mg/kg, ip administered 24 hrs before infection by ELISA; assay type: functional, organism-based
# [1] = Induction of neutrophil extracellular trap formation in neutrophil (unknown origin) at 10 ug/ml measured after 3 hrs by fluorescence analysis; assay type: functional; settings: dose 10 µg/ml
compound,measurement,setting,value
CC[C@H](C)[C@H](NC(=O)[C@@H]1CCCN1C(=O)[C@@H](NC(=O)[C@@H](NC(=O)CNC(=O)CNC(=O)[C@@H](NC(=O)[C@H](Cc1ccccc1)NC(=O)[C@@H](NC(=O)[C@H](CCCCN)NC(=O)[C@@H](NC(=O)[C@H](CCCCN)NC(=O)[C@H](CCCCN)NC(=O)[C@H](Cc1ccccc1)NC(=O)[C@@H](NC(=O)[C@H](CCCCN)NC(=O)[C@H](CCCNC(=N)N)NC(=O)[C@H](Cc1ccccc1)NC(=O)CNC(=O)[C@H](CCCCN)NC(=O)[C@H](CCCCN)NC(=O)[C@@H](NC(=O)[C@H](CCCCN)NC(=O)[C@H](CCCNC(=N)N)NC(=O)[C@H](Cc1ccccc1)NC(=O)[C@H](Cc1ccccc1)NC(=O)[C@H](CCCCN)NC(=O)[C@H](CCCCN)NC(=O)[C@H](Cc1ccccc1)NC(=O)[C@H](CCCNC(=N)N)NC(=O)[C@@H](N)CCCCN)[C@@H](C)CC)[C@@H](C)CC)[C@@H](C)O)[C@@H](C)CC)[C@@H](C)CC)[C@@H](C)O)[C@@H](C)CC)C(=O)O (H-KRFKKFFRKIKKGFRKIFKKTKIFIGGTIPI-OH),MIC,Candida albicans,1.17 µg/mL
same,inhibition,Macrophage,Dose-dependent effect
same,Activity,Escherichia coli,65.98%
same,inhibition,Neutrophil,inactive
same,Activity,Mus musculus,Active
same,Activity,[1],15.65%
